Measurements published in patent US10064853B2, “Compounds for use in methods for treating diseases or conditions mediated by protein disulfide isomerase” (Beth Israel Deaconess Medical Center, Inc., priority 2013, dated 2018).
Where two headings read alike, the source gives them in different places.

Key:
[1] = target: ERp57 (Homo sapiens (Human), UniProt P30101); assay: Insulin turbidimetric assay counter screen, ERp57; format: biochemical; details: Table B; read-out: Counter Screen: Selectivity against other thiol isomerases IC50 ERp57
ERp57, sequence (P30101 25-505, species assumed): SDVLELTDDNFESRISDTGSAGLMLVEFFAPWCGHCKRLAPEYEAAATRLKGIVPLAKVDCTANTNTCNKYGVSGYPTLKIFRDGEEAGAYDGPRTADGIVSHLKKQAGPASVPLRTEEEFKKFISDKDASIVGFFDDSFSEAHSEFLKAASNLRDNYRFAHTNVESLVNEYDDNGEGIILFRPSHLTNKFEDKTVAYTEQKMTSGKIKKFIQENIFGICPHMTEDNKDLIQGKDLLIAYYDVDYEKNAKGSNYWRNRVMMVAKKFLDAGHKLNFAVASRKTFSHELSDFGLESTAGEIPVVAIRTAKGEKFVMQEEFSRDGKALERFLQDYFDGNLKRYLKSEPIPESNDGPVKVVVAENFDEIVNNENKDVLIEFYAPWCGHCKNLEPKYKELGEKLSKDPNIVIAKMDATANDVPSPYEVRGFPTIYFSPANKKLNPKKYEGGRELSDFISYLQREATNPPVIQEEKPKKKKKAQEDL
Protocol: (§1) PDI inhibitors were evaluated in an insulin turbidimetric assay to assess their ability to block the reductase activity of PDI. The assay measured the aggregation of insulin chains by monitoring absorbance at 650 nm as previously described in Jasuja, R. et al. Protein disulfide isomerase inhibitors constitute a new class of antithrombotic agents. J Clin Invest 122, 2104-2113 (2012) (hereinafter “Jasija”). Cleavage of disulfide bonds within insulin by PDI results in aggregation of insulin. When PDI is inhibited, there is a decrease in aggregation of insulin, and therefore a decrease in absorbance signal at 650 nm. Recombinant human PDI expressed and purified from E. coli., mixed with bovine insulin (Sigma), and added to assay plates. The reaction mixture for insulin reduction assays contained 100 mM potassium phosphate, pH 7.4; 0.75 mM DTT, 2 mM EDTA, 0.1 mM bovine insulin, and 0.8 μM purified human PDI in a total volume of 135 μl in a 96 well plate. The progress of the reaction was monitored for 30 min at 23° C. Indicated inhibitors or control buffer was added prior to the addition of enzyme at the concentrations indicated. PDI activity in the presence of compound was determined by the formula, PDI activity (%)={OD(compound+PDI+DTT)−OD(DTT)}/{OD(PDI+DTT)−OD(DTT)}×100 % enzyme inhibition={1−(ODmax(compound+enzyme)/ODmax(buffer control+enzyme)}
(§2) The insulin turbidimetric assay was used with alternative thiol isomerases to evaluate the specificity of inhibitors, as shown in Tables B and C. Other oxidoreductases used to evaluate the specificity of inhibitors include ERp5, thioredoxin (TR), and thioredoxin reductase (TRR).

[2] = target: human PDI (Homo sapiens (Human), UniProt P07237); assay: Insulin turbidimetric assay of PDI reductase activity; format: biochemical
human PDI, sequence (P07237 18-508): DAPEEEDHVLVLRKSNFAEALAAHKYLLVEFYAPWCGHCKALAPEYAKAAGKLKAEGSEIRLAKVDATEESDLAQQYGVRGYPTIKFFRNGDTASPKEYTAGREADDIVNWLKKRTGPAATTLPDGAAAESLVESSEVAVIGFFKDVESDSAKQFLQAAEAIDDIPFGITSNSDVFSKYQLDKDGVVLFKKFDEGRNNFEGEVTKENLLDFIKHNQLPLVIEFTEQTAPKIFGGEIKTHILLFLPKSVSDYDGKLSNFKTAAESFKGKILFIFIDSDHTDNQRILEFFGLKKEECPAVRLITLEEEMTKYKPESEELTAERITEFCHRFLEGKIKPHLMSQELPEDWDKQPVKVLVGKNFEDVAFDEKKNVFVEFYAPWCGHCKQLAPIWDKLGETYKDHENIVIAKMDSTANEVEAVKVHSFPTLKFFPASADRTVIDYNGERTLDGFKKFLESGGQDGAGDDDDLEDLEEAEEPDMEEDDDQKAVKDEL
Protocol: as §1
IC50 values were calculated using non-linear regression analysis.

[3] = target: Thioredoxin (Homo sapiens (Human), UniProt P10599); assay: Insulin turbidimetric assay counter screen, thioredoxin; format: biochemical
Thioredoxin, sequence (P10599 whole entry, species assumed): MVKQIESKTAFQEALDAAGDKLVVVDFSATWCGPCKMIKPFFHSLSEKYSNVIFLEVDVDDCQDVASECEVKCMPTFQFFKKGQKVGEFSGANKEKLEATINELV
Protocol: as §1, §2

[4] = target: Thioredoxin reductase; assay: Insulin turbidimetric assay counter screen, thioredoxin reductase; format: biochemical
Protocol: as §1, §2

[5] = Stability of PDI inhibitors in human plasma; format: in vitro ADME; details: 1 μM, room temperature
Protocol: (§3) The stability of PDI inhibitors was measured in the presence of PBS pH 7.4 with 1% DMSO. PDI inhibitors were added to plasma (in triplicate at 1 μM) on six separate plates and allowed to equilibrate at room temperature for 48 hours. At each time point (0, 2, 4, 8, 24, and 48 hours), one plate was removed and an aliquot was taken out from each well and analyzed by UPLC-MS.

[6] = target: ERp5 (Homo sapiens (Human), UniProt Q15084); assay: Insulin turbidimetric assay counter screen, ERp5; format: biochemical
ERp5, sequence (Q15084 20-440, species assumed): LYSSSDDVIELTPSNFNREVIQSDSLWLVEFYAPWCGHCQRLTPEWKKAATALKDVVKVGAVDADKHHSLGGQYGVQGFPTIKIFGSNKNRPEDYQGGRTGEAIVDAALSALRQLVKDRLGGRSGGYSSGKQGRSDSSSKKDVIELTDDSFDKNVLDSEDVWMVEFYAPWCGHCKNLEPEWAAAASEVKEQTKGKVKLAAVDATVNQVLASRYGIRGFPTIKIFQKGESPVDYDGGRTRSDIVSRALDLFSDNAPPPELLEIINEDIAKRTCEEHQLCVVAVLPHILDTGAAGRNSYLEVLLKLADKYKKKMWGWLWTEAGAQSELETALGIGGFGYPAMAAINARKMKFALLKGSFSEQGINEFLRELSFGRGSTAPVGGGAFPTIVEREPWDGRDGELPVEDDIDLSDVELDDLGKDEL
Protocol: as §1, §2

[7] = Stability of PDI inhibitors in mouse plasma; format: in vitro ADME; details: 1 μM, room temperature
Protocol: as §3

[8] = test system: washed platelets; assay: Platelet aggregation (SFLLRN-induced, washed platelets); format: cell-based; details: inhibition of platelet aggregation; compounds at 30 μM, 30 minutes at 37° C., SFLLRN-initiated
Protocol: Platelet Rich Plasma (PRP) was prepared from whole blood obtained from individual donors and drawn into Acid Citrate Dextrose (ACD) at 15% of total volume. PGE-1 was added to a final concentration of 0.15 µM to maintain the resting state. PRP was spun at 1000 g×10 minutes and the supernatant was discarded. The platelet pellet was resuspended in Modified HEPES-Tyrodes buffer pH 7.3. The 1× washed platelets were incubated for 20 minutes at 37° C. until they were in a quiescent state. The above washing procedure was then repeated. The 2× washed platelets were allowed to rest for 20 minutes at 37° C. Platelets were then counted and the concentration of platelets in suspension was adjusted to 200,000 platelets/µL. The 2× washed platelets were treated with compounds at 30 µM, and were incubated for 30 minutes at 37° C. Following incubation, platelets were added to a cuvette and stirred at 37° C. in a Chrono-Log Platelet Aggregometer. In order to initiate aggregation, a concentration of SFLLRN, the thrombin receptor activating peptide, sufficient to elicit 60-70% light transmittance was added to the cuvette. Therefore, a range of 2-3 µM SFLLRN was used in order to accommodate small differences in sensitivity to SFLLRN between individual donors. Prior to reading, the aggregometer was scaled so that unstimulated, washed platelets are set to 0% light transmittance, and buffer alone with no platelets is set to 100% light transmittance. The light transmittance of each sample was recorded as a measure of aggregation. Data were recorded as a single point representing maximum aggregation in the presence of compound and were compared to samples exposed to vehicle (DMSO) alone. See Jasuja

[9] = Table A, average of two independent experiments, read-out: PDI_Inhibition_ IC50
[10] = Table B, read-out: PDI_ Inhibition_ IC50
[11] = insulin reductase assay, recombinant human PDI, read-out: PDI_Inhibition_ IC50
[12] = Table B, read-out: Counter Screen: Selectivity against other thiol isomerases IC50 Thioredoxin
[13] = Table B, read-out: Counter Screen: Selectivity against other thiol isomerases IC50 Thioredoxin reductase
[14] = Table B, read-out: Counter Screen: Selectivity against other thiol isomerases IC50 ERp5
[15] = Table C, read-out: Specif. (ERp5, TR, TRR): ERp5
[16] = Table C, read-out: Specif. (ERp5, TR, TRR): TR
[17] = Table C, read-out: Specif. (ERp5, TR, TRR): TRR

SMILES | IC50 [1] [µM] | IC50 [2, 9] [µM] | IC50 [2, 10] [µM] | IC50 [2, 11] [µM] | IC50 [3, 12] [µM] | IC50 [4, 13] [µM] | IC50 ([2]; Table C, PDI, read-out: IC50) [µM] | Plasma stability human [5] [%] | IC50 [6, 14] [µM] | IC50 [6, 15] [µM] | IC50 [3, 16] [µM] | IC50 [4, 17] [µM] | Plasma stability mouse [7] [%] | Platelet Aggregation [8]
O=C(Nc1ccccc1)C1(CCOc2ccccc2)CCN(Cc2ccc(O)c(Cl)c2)CC1 [Compound 19] | > 30 | 22.5 | 22.5 | 22.5 | > 30 | > 30 |  |  |  |  |  |  |  | 
CC(C)(C)OC(=O)C1(CCOc2ccccc2)CCN(Cc2ccc(O)c(Cl)c2)CC1 [Compound 14] | > 30 | 0.65 | 0.65 | 0.65 | > 30 | > 30 | 0.65 | 98.7 | > 30 | > 30 | > 30 | > 30 | 95.6 | 100%
CCOC(=O)C1(CCOc2ccccc2)CCN(Cc2ccc(O)c(Cl)c2)CC1 [Compound 1, Ethyl 1-(3-chloro-4-hydroxybenzyl)-4-(2-phenoxyethyl)piperidine-4-carboxylate] | > 30 | 0.25 | 0.25 | 0.25 | > 30 | > 30 | 0.3 to 0.6 | 100 | > 30 | > 30 | > 30 | > 30 | 5.3 | 25-50%
CCOC(=O)C1(CCOc2ccccc2)CCN(Cc2ccc(O)cc2)CC1 [Compound 7] | > 30 |  | 15 |  | > 30 | > 30 |  |  |  |  |  |  |  | 
CCOC(=O)C1(CCOc2ccccc2)CCN(Cc2ccc(OC)c(Cl)c2)CC1 [Compound 4] | > 30 | > 30 | > 30 | > 30 | > 30 | > 30 |  |  |  |  |  |  |  | 
CCN(C)C(=O)C1(CCOc2ccccc2)CCN(Cc2ccc(O)c(Cl)c2)CC1 [Compound 16] | > 30 | 3 | 3 | 3 | > 30 | > 30 |  |  |  |  |  |  |  | 
C=CCOc1ccc(CN2CCC(CCOc3ccccc3)(C(=O)OCC)CC2)cc1Cl [Compound 5] |  | > 30 |  | > 30 |  |  |  |  |  |  |  |  |  | 
CCOC(=O)C1(CCOc2ccccc2)CCN(C(=O)c2ccc(O)c(Cl)c2)CC1 [Compound 9] | > 30 | 2.25 | 2.25 | 2.25 | > 30 | > 30 | 2.25 | 100 |  | > 30 | > 30 | > 30 | 100 | 100%
O=C(N1CCCC1)C1(CCOc2ccccc2)CCN(Cc2ccc(O)c(Cl)c2)CC1 [Compound 18] |  | > 30 |  | > 30 |  |  |  |  |  |  |  |  |  | 
CCOC(=O)C1(CCOc2ccccc2)CCN(Cc2ccc(OC)cc2)CC1 [Compound 6] |  | > 30 |  | > 30 |  |  |  |  |  |  |  |  |  | 
CCNC(=O)C1(CCOc2ccccc2)CCN(Cc2ccc(O)c(Cl)c2)CC1 [Compound 15] |  | > 30 |  | > 30 |  |  |  |  |  |  |  |  |  | 
CCOC(=O)C1(CCOc2ccccc2)CCN(Cc2ccc3[nH]c(=O)oc3c2)CC1 [Compound 8] |  | > 30 |  | > 30 |  |  |  |  |  |  |  |  |  | 
CC(C)OC(=O)C1(CCOc2ccccc2)CCN(Cc2ccc(O)c(Cl)c2)CC1 [Compound 13] | > 30 | 0.85 | 0.85 | 0.85 | > 30 | > 30 | 0.85 | 97.9 | > 30 | > 30 | > 30 | > 30 | 75.3 | 97%
O=C(NC1CCCC1)C1(CCOc2ccccc2)CCN(Cc2ccc(O)c(Cl)c2)CC1 [Compound 17] | > 30 | 4 | 4 | 4 | > 30 | > 30 |  |  |  |  |  |  |  | 
